Test results as given in PMC6198068, “Discovery of a Novel Nav1.7 Inhibitor From Cyriopagopus albostriatus Venom With Potent Analgesic Efficacy” (Frontiers in Pharmacology, 2018).
Where a SMILES comes first, the peptide text is derived from it. Bridges are numbered along the chain shown (N, C = ends).

Experiments:
Nav1.4/N655D/Q657E = target: T1, Nav1.4/N655D/Q657E (Rattus norvegicus, UniProt P15390, N655D/Q657E); test: Whole-cell patch-clamp, Nav1.4/N655D/Q657E in HEK293T cells; format: cell-based
T1 construct: expressed in transfected cells; host or cells: HEK293T
Excerpt: (§1) The cDNA genes encoding rat Nav1.4 and human Nav1.7 were subcloned into vectors pRGB4 and pcDNA3.1-mod, respectively. Mutations of rNav1.4 (N655D, Q657E, and N655D/Q657E) and hNav1.7 (D816N, E818Q, and D816N/E818Q) were constructed using the Gene Tailor Site-Directed Mutagenesis system (Invitrogen, Carlsbad, CA, United States), according to the manufacturer’s instructions. Nav1.2–Nav1.7 and mutant plasmids together with eGFP were transiently transfected into HEK293T cells while Nav1.8 together with eGFP was transiently transfected into ND7/23 cells by Lipofectamine 2000 (Invitrogen, Carlsbad, CA, United States). Additionally, plasmids β1- and β2-eGFP encoding the human β1 and β2 subunits, respectively, were co-transfected with those encoding WT Nav1.7 and Nav1.7 mutations in HEK293T cells. […] Cells with green fluorescent protein fluorescence were selected for whole-cell patch-clamp recordings 24 h after transfection.
(§2) Whole-cell patch-clamp recordings were performed at room temperature (20–25°C) using an EPC 10 USB Patch Clamp Amplifier (HEKA, Elektronik, Lambrecht, Germany). […] Data was analyzed by software Igo Pro 6.10A (WaveMetrics, Lake Oswego, OR, United States), SigmaPlot 10.0 (Sigma-Aldrich, St. Louis, MO, United States), OriginPro 8 (OriginLab Corp., Northampton, MA, United States), and GraphPad Prism 5 (GraphPad Software, San Diego, CA, United States). […]

Nav1.6 = target: T2, Nav1.6 (Homo sapiens, UniProt Q9UQD0); test: Whole-cell patch-clamp, Nav1.6 in HEK293T cells; format: cell-based; details: mean ± SEM
T2 construct: expressed in transfected cells; host or cells: HEK293T
Excerpt: as §1, §2

Nav1.7/D816N = target: T3, Nav1.7/D816N (Homo sapiens, UniProt Q15858, D827N); test: Whole-cell patch-clamp, Nav1.7/D816N in HEK293T cells; format: cell-based
T3 construct: expressed in transfected cells; host or cells: HEK293T
Excerpt: as §1, §2

hNav1.7 = target: T4, hNav1.7 (Homo sapiens, UniProt Q15858); test: Whole-cell patch-clamp, WT Nav1.7 in HEK293T cells; format: cell-based; details: mean ± SEM
T4 construct: expressed in transfected cells; host or cells: HEK293T
Excerpt: as §1, with “cells. Human Nav1.9 was transfected into ND7/23 cells according to a previous report ([Zhou et al., 2017]).” for “cells.”
as §2
(§3) Concentration-response curves were fitted using the following Hill logistic equation: y = fmax − (fmax − fmin)/(1 + (x/IC50)^n), where fmax and fmin, respectively, represent the channel’s maximum and minimum responses to toxins, fmin was set to 0, x represents toxin concentration and n is an empirical Hill coefficient. […] Peak inward currents from steady-state inactivation were normalized by the maximum current amplitude and fit with a Boltzmann equation I = Imin + 1/(1 + exp[Vm − V1/2/k]) where I is the current amplitude measured during the test depolarization, V1/2 is the midpoint of inaction, and k is the slope factor. […]

Nav1.7/E818Q = test: Whole-cell patch-clamp, Nav1.7/E818Q in HEK293T cells; format: cell-based, human; details: 1 μM, n = 5 cells
Excerpt: as §1, §2

Nav1.5 = target: T5, Nav1.5 (Homo sapiens, UniProt Q14524); test: in vitro
T5 construct: expressed in transfected cells; host or cells: HEK293T
Excerpt: as §1, with “cells. Human Nav1.9 was transfected into ND7/23 cells according to a previous report ([Zhou et al., 2017]).” for “cells.”
as §2, §3

Nav1.7 = target: T6, Nav1.7 (Homo sapiens, UniProt Q15858); test: Steady-state slow inactivation of Nav1.7; format: cell-based; details: 0.2 μM; 15 s pre-pulses; control −52.62 ± 3.79 mV; P < 0.01 paired t-test; mean ± SEM, n = 6–11 cells
T6 construct: expressed in transfected cells; host or cells: HEK293T
Excerpt: as §1, with “States).” for “States). Additionally, plasmids β1- and β2-eGFP encoding the human β1 and β2 subunits, respectively, were co-transfected with those encoding WT Nav1.7 and Nav1.7 mutations in HEK293T cells.”
as §2
Fast inactivation time constants were calculated by fitting current decay traces with a single exponential function using the I–V protocol described above. […]

T5 sequence (Q14524 whole entry): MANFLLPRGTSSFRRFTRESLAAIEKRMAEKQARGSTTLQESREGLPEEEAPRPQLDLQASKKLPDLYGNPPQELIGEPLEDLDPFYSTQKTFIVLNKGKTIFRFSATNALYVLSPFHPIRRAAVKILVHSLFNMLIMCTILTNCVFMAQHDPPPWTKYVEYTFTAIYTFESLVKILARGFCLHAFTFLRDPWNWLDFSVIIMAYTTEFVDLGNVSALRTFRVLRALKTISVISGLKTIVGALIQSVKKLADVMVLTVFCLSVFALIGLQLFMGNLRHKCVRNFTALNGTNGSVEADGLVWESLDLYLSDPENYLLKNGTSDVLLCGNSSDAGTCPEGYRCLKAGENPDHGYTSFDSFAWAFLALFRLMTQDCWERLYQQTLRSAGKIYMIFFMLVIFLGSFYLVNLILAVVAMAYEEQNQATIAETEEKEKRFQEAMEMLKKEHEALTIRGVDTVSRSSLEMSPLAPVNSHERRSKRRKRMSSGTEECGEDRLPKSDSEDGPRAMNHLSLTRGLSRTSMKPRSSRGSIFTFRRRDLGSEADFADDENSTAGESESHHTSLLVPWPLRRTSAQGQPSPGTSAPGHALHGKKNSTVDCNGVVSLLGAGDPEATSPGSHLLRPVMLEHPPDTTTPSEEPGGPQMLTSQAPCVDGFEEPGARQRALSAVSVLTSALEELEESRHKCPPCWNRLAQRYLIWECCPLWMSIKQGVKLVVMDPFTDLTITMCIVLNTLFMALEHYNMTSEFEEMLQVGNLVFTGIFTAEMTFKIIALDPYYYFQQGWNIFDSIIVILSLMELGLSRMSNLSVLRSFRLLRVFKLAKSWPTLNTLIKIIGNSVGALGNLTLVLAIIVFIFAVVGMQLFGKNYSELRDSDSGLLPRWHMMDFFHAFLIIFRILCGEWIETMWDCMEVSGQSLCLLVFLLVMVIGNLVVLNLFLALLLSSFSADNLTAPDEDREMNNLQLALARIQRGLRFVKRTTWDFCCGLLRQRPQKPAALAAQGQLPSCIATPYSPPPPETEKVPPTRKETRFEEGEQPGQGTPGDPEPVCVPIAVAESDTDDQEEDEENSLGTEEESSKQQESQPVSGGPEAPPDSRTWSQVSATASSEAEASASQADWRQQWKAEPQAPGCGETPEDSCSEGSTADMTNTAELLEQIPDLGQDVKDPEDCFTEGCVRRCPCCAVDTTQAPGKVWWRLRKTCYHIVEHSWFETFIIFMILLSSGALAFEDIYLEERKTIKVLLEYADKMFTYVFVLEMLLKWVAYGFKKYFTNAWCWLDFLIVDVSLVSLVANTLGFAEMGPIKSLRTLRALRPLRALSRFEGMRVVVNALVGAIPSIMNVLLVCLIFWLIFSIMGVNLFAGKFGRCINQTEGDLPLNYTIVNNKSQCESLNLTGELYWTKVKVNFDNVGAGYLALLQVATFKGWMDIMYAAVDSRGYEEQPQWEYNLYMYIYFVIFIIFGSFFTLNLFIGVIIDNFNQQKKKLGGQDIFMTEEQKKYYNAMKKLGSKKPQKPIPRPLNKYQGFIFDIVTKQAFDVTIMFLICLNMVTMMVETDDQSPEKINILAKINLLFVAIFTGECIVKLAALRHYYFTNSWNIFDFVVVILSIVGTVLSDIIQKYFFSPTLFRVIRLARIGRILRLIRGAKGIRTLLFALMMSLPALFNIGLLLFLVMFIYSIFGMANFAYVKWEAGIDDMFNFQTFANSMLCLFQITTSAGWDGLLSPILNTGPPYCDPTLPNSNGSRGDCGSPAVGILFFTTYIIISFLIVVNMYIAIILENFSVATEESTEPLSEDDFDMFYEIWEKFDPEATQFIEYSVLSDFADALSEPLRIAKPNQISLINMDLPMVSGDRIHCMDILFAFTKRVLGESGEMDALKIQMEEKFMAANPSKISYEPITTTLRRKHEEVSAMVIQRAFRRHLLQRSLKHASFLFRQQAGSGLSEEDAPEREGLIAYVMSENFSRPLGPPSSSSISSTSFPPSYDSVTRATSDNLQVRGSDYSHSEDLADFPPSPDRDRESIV
T4 sequence (O60939 30-215): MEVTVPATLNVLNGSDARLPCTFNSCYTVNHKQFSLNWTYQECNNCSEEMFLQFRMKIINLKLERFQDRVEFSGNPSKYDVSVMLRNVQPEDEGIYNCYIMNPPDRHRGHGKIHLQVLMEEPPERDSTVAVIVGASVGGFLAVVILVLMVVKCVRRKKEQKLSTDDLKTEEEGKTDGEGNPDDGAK
T4 sequence (Q15858 other isoform, or with tags, fused parts or gaps): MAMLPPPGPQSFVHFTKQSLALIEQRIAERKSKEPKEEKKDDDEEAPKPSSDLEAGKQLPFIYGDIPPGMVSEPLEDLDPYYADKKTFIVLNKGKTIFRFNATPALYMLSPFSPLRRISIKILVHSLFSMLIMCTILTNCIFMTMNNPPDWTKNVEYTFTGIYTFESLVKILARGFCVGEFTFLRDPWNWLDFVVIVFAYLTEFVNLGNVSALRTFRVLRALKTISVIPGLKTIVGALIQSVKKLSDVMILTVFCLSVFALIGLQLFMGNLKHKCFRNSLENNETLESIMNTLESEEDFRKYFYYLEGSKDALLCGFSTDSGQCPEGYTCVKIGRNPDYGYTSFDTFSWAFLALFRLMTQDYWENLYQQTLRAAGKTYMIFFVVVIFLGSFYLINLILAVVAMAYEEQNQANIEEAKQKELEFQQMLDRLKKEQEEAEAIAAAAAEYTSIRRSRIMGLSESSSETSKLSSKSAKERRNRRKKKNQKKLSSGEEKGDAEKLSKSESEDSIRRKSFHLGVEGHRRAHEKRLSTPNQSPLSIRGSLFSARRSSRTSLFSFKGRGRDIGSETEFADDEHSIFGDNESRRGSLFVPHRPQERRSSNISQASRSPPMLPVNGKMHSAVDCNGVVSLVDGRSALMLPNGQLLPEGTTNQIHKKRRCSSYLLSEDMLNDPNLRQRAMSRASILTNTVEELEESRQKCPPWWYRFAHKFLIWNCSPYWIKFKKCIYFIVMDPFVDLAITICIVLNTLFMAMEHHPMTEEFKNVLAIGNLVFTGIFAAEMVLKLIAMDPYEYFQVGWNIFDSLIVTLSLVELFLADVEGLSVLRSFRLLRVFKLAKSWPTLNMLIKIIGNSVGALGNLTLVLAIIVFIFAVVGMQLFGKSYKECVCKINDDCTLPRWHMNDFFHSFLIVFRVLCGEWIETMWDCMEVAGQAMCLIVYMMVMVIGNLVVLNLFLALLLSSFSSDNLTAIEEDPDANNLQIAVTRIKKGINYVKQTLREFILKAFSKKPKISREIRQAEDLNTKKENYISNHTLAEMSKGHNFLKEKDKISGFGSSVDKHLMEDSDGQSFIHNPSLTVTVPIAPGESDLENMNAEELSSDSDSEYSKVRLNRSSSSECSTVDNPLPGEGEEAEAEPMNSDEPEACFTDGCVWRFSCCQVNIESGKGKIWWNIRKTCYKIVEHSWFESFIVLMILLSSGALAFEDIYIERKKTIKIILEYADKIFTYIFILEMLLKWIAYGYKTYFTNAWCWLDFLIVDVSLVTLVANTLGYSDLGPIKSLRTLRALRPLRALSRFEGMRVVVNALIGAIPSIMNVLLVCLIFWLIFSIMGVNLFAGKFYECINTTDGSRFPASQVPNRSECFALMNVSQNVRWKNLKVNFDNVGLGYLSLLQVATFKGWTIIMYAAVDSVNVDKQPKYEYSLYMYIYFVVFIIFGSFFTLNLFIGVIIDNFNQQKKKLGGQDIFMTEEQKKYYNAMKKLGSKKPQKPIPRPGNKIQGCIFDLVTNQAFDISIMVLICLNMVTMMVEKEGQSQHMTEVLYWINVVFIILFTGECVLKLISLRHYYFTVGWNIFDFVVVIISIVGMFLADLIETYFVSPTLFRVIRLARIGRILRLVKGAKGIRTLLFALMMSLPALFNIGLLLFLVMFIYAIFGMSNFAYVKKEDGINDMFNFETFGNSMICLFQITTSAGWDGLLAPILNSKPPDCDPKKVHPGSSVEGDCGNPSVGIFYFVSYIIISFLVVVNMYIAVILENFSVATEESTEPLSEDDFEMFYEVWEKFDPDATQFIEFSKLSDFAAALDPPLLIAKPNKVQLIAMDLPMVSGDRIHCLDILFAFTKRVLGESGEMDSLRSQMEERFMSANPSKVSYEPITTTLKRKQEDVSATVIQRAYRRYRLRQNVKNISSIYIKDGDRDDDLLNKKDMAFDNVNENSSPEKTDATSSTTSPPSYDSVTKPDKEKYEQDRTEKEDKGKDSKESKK
T4 sequence (Q07699 19-218, further chain): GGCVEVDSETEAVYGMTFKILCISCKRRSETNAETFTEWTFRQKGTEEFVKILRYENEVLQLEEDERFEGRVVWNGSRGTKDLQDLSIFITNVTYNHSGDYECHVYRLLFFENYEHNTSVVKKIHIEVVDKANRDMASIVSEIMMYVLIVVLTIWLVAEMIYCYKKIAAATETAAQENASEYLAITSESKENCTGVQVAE
T3 sequence (O60939 30-215): as the sequence (O60939 30-215) above
T3 sequence (Q07699 19-218, further chain): as the sequence (Q07699 19-218, further chain) above
T3 sequence (Q15858 other isoform, or with tags, fused parts or gaps D816N): as the sequence (Q15858 other isoform, or with tags, fused parts or gaps) above, with D816N counted along it
T6 sequence (O60939 30-215): as the sequence (O60939 30-215) above
T6 sequence (Q15858 other isoform, or with tags, fused parts or gaps): as the sequence (Q15858 other isoform, or with tags, fused parts or gaps) above
T6 sequence (Q07699 19-218, further chain): as the sequence (Q07699 19-218, further chain) above

Question: `CC(C)C[C@H](NC(=O)[C@H](CC(=O)O)NC(=O)[C@H](Cc1ccc(O)cc1)NC(=O)[C@H](CCCCN)NC(=O)[C@@H]1CSSC[C@@H]2NC(=O)[C@H](CCCCN)NC(=O)[C@H](CC(=O)O)NC(=O)[C@H](CC(N)=O)NC(=O)[C@H](CO)NC(=O)[C@@H]3CCCN3C(=O)[C@H](CC(N)=O)NC(=O)[C@@H]3CSSC[C@H](NC(=O)[C@H](C(C)C)NC(=O)[C@H](CC(C)C)NC(=O)[C@H](CO)NC(=O)[C@H](CO)NC(=O)[C@H](CO)NC(=O)[C@H](CCCCN)NC(=O)[C@H](CSSC[C@H](NC(=O)[C@H](C)N)C(=O)N[C@@H](CC(C)C)C(=O)NCC(=O)N[C@@H](Cc4ccccc4)C(=O)NCC(=O)N[C@@H](CCC(=O)O)C(=O)N[C@@H](CCCCN)C(=O)N3)NC2=O)C(=O)N[C@@H](CO)C(=O)N[C@@H](CCC(N)=O)C(=O)N[C@@H](CCCCN)C(=O)N[C@@H](Cc2c[nH]cn2)C(=O)N[C@@H](CCCCN)C(=O)N[C@@H](Cc2c[nH]c3ccccc23)C(=O)N1)C(=O)O` [Ca2a] (H-ACLGFGEKCNPSNDKCCKSSSLVCSQKHKWCKYDL-OH; disulfide 2-17, 9-24, 16-31 (inferred); N-terminus and C-terminus assumed) was tested. Which “inhibition of peak current of Nav1.4/N655D/Q657E” value (Nav1.4/N655D/Q657E; 1 μM, n = 4–5 cells) did it give?
Answer: The value was “significantly inhibited”.

Question: And the IC50 (Nav1.4/N655D/Q657E; mean ± SEM, n = 4–5 cells per data point)?
Answer: The IC50 was 238 ± 26.1 nM.

Question: What about the “decrease of Nav1.6 current amplitude” value (Nav1.6; 1 μM, 50 ms to −10 mV from −100 mV) of the same molecule?
Answer: The value was 78.7 ± 2.9%.

Question: And the IC50 (Nav1.6; whole-cell patch-clamp, n = 4–7 cells per data point)?
Answer: The IC50 was 314 ± 6.3 nM.

Question: And the “inhibition of Nav1.7/D816N current amplitude” value (Nav1.7/D816N; 1 μM)?
Answer: The value was “significantly inhibited”.

Question: And the IC50 (Nav1.7/D816N; mean ± SEM, n = 5 cells per data point)?
Answer: The IC50 was 172 ± 11.4 nM.

Question: And the inhibition at 0.2 µM (hNav1.7; HEK-293T, 0.2 μM, read-out: inhibition of Nav1.7 current)?
Answer: The inhibition at 0.2 µM was 64.5 ± 2.1%.

Question: And the inhibition at 1 µM (hNav1.7; HEK-293T, 1 μM, 50 ms depolarization to −10 mV from −100 mV, room temperature, read-out: inhibition on Nav1.7 currents)?
Answer: Its inhibition at 1 µM is 87.3 ± 4.4%.

Question: And the IC50 (hNav1.7; whole-cell patch-clamp, 50 ms to −10 mV from −100 mV, n = 4–7 cells per data point)?
Answer: The IC50 was 98.1 ± 3.3 nM.

Question: What about the “activity on Nav1.7/E818Q” value (Nav1.7/E818Q) of the same molecule?
Answer: The value was “no activity”.

Question: What about the selectivity ratio (Nav1.5; cardiac isoform Nav1.5 vs Nav1.7, read-out: selectivity for Nav1.7 against Nav1.5) of the same molecule?
Answer: The selectivity ratio was over 100.

Question: What about the IC50 (Nav1.5; cardiac muscle isoform, whole-cell patch-clamp, HEK293T) of the same molecule?
Answer: Its IC50 is over 10000 nM.

Question: And the “inhibitory effect on Nav1.5 currents” value (Nav1.5; up to 10 μM, HEK293T)?
Answer: Its value is “no inhibitory effects”.

Question: What about the “steady-state slow inactivation potential of Nav1.7” value (Nav1.7) of the same molecule?
Answer: Its value is −72.00 ± 2.76 mV.
